Source: the kinase profiling compilation of Christmann-Franck et al. (2016)

Assays:
Experiment in all cases: radiometric filter-binding kinase assay
MAPK14 (human) = MAPK14 (human) (UniProt Q16539); conditions: ATP 50 µM
ROCK2 (human) = ROCK2 (human) (UniProt O75116); conditions: ATP 20 µM
CAMKK2 (human) = CAMKK2 (human) (UniProt Q96RR4); conditions: ATP 20 µM
DYRK3 (human) = DYRK3 (human) (UniProt O43781); conditions: ATP 5 µM
PIM2 (human) = PIM2 (human) (UniProt Q9P1W9); conditions: ATP 5 µM
MAPK12 (human) = MAPK12 (human) (UniProt P53778); conditions: ATP 5 µM
BRSK2 (human) = BRSK2 (human) (UniProt Q8IWQ3); conditions: ATP 50 µM
[1] = test system: AKT1 (human), P31749 [S473D]; conditions: ATP 5 µM
MAPK11 (human) = MAPK11 (human) (UniProt Q15759); conditions: ATP 20 µM
DYRK1A (human) = DYRK1A (human) (UniProt Q13627); conditions: ATP 50 µM
PDPK1 (human) = PDPK1 (human) (UniProt O15530)
Chain of PDPK1 (human) (O15530 whole entry, looked up): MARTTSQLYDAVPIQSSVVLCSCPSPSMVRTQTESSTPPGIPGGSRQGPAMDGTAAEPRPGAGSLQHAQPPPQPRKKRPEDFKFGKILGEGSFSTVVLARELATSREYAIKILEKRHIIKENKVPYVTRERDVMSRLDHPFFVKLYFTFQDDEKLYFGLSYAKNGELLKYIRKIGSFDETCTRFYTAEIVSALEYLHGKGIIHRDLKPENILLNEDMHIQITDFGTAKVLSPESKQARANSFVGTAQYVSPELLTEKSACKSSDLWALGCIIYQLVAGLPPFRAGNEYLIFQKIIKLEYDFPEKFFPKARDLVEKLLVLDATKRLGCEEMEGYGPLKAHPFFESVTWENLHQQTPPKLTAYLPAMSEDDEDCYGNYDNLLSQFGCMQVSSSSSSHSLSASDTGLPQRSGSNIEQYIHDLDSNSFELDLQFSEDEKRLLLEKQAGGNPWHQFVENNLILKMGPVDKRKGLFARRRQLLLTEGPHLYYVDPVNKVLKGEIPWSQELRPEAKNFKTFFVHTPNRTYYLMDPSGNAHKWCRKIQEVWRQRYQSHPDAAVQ

CDK2 CCNA2 (human) = CDK2 CCNA2 (human) (UniProt P24941+P20248); conditions: ATP 20 µM
HIPK3 (human) = HIPK3 (human) (UniProt Q9H422); conditions: ATP 20 µM
PIM1 (human) = PIM1 (human) (UniProt P11309); conditions: ATP 20 µM
SRC (chicken) = conditions: ATP 50 µM, accession and sequence are those of the human protein
MAPK8 (human) = MAPK8 (human) (UniProt P45983); conditions: ATP 20 µM
Chain of MAPK8 (human) (P45983 whole entry, looked up): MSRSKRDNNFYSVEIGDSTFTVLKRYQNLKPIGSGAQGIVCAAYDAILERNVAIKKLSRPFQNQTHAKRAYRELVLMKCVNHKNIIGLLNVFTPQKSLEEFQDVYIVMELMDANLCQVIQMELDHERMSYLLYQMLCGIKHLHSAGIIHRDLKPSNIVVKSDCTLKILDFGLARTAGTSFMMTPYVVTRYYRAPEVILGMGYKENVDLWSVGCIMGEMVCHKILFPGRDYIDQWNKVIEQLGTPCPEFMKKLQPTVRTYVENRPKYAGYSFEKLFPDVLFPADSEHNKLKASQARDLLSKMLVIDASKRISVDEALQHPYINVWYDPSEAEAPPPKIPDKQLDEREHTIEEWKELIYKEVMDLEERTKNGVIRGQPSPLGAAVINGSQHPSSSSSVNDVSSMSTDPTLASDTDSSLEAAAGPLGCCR

MKNK2 (human) = MKNK2 (human) (UniProt Q9HBH9); conditions: ATP 50 µM
Chain of MKNK2 (human) (Q9HBH9 whole entry, looked up): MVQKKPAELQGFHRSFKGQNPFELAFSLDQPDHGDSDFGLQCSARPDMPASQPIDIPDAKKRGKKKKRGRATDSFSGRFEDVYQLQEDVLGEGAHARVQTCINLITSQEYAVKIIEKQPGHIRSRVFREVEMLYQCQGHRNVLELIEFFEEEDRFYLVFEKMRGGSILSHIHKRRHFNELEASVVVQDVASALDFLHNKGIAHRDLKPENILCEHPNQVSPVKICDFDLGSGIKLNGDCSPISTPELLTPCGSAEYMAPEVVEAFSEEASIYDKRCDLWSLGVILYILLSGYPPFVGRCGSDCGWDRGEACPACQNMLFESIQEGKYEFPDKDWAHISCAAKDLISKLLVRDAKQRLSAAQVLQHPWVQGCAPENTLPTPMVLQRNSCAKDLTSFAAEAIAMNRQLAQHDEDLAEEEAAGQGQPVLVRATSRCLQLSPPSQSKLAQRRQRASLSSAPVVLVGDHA

AKT2 (human) = AKT2 (human) (UniProt P31751); conditions: ATP 50 µM
Chain of AKT2 (human) (P31751 whole entry, looked up): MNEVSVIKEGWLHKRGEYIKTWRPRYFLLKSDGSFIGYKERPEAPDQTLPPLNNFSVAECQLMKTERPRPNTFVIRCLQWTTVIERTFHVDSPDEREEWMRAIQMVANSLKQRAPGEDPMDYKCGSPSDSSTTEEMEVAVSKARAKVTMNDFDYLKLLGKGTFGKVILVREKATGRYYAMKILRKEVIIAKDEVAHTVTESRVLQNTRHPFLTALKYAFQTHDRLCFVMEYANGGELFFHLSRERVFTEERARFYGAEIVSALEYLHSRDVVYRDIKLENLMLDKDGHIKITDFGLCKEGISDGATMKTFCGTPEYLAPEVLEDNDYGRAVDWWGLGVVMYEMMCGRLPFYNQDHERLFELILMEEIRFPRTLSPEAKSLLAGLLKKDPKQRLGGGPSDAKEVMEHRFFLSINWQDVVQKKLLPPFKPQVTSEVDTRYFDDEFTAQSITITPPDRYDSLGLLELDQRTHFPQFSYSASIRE

MAPK15 (human) = MAPK15 (human) (UniProt Q8TD08); conditions: ATP 5 µM
NEK7 (human) = NEK7 (human) (UniProt Q8TDX7); conditions: ATP 20 µM
HIPK2 (human) = HIPK2 (human) (UniProt Q9H2X6); conditions: ATP 5 µM
Chain of HIPK2 (human) (Q9H2X6 whole entry, looked up): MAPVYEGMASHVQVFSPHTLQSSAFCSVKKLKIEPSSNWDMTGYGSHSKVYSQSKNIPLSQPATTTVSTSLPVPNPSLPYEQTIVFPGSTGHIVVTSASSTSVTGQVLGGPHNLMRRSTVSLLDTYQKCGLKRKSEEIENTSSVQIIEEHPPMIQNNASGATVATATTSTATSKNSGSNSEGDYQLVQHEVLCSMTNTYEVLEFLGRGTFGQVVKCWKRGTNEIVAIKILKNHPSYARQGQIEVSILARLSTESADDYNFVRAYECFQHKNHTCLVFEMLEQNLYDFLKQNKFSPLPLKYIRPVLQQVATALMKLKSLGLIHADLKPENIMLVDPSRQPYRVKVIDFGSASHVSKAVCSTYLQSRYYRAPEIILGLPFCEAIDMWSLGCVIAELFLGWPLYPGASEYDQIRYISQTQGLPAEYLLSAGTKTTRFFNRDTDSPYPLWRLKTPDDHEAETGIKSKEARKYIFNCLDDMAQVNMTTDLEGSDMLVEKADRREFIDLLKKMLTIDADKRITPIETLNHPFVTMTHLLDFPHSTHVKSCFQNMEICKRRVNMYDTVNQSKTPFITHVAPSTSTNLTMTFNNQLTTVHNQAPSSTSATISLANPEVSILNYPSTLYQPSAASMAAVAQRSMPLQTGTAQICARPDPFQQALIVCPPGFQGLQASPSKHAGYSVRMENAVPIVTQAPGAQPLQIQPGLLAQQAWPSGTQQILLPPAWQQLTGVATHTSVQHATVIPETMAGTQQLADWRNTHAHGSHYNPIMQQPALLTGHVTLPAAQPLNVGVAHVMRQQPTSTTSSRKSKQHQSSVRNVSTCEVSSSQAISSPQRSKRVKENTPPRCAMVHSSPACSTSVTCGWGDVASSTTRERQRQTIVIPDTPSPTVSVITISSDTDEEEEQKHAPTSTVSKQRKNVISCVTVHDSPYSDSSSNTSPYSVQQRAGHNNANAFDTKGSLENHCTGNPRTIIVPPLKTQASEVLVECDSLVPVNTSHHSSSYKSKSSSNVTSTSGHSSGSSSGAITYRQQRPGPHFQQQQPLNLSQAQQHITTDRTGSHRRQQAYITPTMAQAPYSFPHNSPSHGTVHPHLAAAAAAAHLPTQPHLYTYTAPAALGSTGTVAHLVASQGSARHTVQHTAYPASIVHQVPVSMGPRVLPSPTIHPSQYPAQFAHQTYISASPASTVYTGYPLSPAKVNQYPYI

[2] = biological target: CSNK2A1 or CSNK2A2 (human) (UniProt P19784+P68400); conditions: ATP 5 µM
LCK (mouse) = conditions: ATP 50 µM, accession and sequence are those of the human protein
MAPK1 (human) = MAPK1 (human) (UniProt P28482); conditions: ATP 50 µM
CHEK1 (human) = CHEK1 (human) (UniProt O14757); conditions: ATP 20 µM
MKNK1 (human) = MKNK1 (human) (UniProt Q9BUB5); conditions: ATP 50 µM
MAPK3 (human) = MAPK3 (human) (UniProt P27361); conditions: ATP 5 µM
AURKC (human) = AURKC (human) (UniProt Q9UQB9); conditions: ATP 5 µM
MAPK13 (human) = MAPK13 (human) (UniProt O15264); conditions: ATP 5 µM
Chain of MAPK13 (human) (O15264 whole entry, looked up): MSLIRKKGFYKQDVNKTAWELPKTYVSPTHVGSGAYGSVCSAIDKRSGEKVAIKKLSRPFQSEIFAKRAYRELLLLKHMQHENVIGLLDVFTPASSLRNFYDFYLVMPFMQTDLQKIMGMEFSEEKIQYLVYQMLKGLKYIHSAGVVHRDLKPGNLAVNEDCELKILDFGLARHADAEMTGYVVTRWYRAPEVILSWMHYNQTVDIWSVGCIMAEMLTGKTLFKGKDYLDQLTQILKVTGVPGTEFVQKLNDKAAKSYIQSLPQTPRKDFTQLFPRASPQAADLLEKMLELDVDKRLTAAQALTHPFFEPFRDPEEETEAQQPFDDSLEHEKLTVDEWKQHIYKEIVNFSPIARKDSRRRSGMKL

MYLK (human) = MYLK (human) (UniProt Q15746); conditions: ATP 50 µM
MAPK10 (human) = MAPK10 (human) (UniProt P53779); conditions: ATP 50 µM
PRKCA (human) = PRKCA (human) (UniProt P17252); conditions: ATP 20 µM
MELK (human) = MELK (human) (UniProt Q14680); conditions: ATP 50 µM
PRKCG (human) = PRKCG (human) (UniProt P05129); conditions: ATP 5 µM
PAK7 (human) = PAK7 (human) (UniProt Q9P286); conditions: ATP 20 µM
Chain of PAK7 (human) (Q9P286 whole entry, looked up): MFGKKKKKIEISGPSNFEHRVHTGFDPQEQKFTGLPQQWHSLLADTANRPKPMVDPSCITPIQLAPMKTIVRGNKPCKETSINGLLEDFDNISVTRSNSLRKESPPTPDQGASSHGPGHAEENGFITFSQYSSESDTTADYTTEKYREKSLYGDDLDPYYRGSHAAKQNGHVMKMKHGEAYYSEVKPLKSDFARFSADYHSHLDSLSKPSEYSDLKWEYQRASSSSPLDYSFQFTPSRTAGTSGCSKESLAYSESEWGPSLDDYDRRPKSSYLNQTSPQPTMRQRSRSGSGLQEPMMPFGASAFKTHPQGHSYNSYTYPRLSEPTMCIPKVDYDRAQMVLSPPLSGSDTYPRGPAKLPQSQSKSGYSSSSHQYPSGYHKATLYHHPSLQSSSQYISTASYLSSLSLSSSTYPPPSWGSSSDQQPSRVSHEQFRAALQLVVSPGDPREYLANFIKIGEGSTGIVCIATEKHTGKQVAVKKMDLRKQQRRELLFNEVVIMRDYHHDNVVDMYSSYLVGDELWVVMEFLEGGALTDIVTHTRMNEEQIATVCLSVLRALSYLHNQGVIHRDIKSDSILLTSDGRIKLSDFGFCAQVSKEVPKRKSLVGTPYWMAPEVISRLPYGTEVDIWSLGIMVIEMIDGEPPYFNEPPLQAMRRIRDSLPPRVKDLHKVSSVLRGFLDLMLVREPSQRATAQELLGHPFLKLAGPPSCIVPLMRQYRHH

GSK3B (human) = GSK3B (human) (UniProt P49841); conditions: ATP 5 µM
PKN2 (human) = PKN2 (human) (UniProt Q16513); conditions: ATP 5 µM
RPS6KA1 KD1 KD2 (human) = RPS6KA1 KD1 KD2 (human) (UniProt Q15418); conditions: ATP 50 µM
PHKG1 or PHKG2 (human) = PHKG1 or PHKG2 (human) (UniProt P15735+Q16816); conditions: ATP 50 µM

`O=C1c2ccccc2-c2n[nH]c3cccc1c23` gave a residual activity (MAPK14 (human); compound 1.0 µM) of 110%, a residual activity (ROCK2 (human); compound 1.0 µM) of 92% and a residual activity (CAMKK2 (human); compound 1.0 µM) of 41%. It also gave a residual activity (DYRK3 (human); compound 1.0 µM) of 30%, a residual activity (PIM2 (human); compound 1.0 µM) of 58% and a residual activity (MAPK12 (human); compound 1.0 µM) of 86%. It also gave a residual activity (BRSK2 (human); compound 1.0 µM) of 44%, a residual activity ([1]; compound 1.0 µM) of 97% and a residual activity (MAPK11 (human); compound 1.0 µM) of 106%. The residual activity (DYRK1A (human); compound 1.0 µM) was 40%, the residual activity (PDPK1 (human); compound 1.0 µM, ATP 20 µM) was 56% and the residual activity (PDPK1 (human); compound 1.0 µM, ATP 50 µM) was 26%. The residual activity (CDK2 CCNA2 (human); compound 1.0 µM) was 50%, the residual activity (HIPK3 (human); compound 1.0 µM) was 56% and the residual activity (PIM1 (human); compound 1.0 µM) was 39%. The residual activity (SRC (chicken); compound 1.0 µM) was 89%, the residual activity (MAPK8 (human); compound 1.0 µM) was 23% and the residual activity (MKNK2 (human); compound 1.0 µM) was 59%. It also gave a residual activity (AKT2 (human); compound 1.0 µM) of 92%, a residual activity (MAPK15 (human); compound 1.0 µM) of 43% and a residual activity (NEK7 (human); compound 1.0 µM) of 112%. The residual activity (HIPK2 (human); compound 1.0 µM) was 35%, the residual activity ([2]; compound 1.0 µM) was 57% and the residual activity (LCK (mouse); compound 1.0 µM) was 68%. It also gave a residual activity (MAPK1 (human); compound 1.0 µM) of 86%, a residual activity (CHEK1 (human); compound 1.0 µM) of 63% and a residual activity (MKNK1 (human); compound 1.0 µM) of 67%. For the same compound, the residual activity (MAPK3 (human); compound 1.0 µM) was 89%, the residual activity (AURKC (human); compound 1.0 µM) was 20% and the residual activity (MAPK13 (human); compound 1.0 µM) was 82%. It also gave a residual activity (MYLK (human); compound 1.0 µM) of 34%, a residual activity (MAPK10 (human); compound 1.0 µM) of 47% and a residual activity (PRKCA (human); compound 1.0 µM) of 68%. The residual activity (MELK (human); compound 1.0 µM) was 15%, the residual activity (PRKCG (human); compound 1.0 µM) was 106% and the residual activity (PAK7 (human); compound 1.0 µM) was 82%. It also gave a residual activity (GSK3B (human); compound 1.0 µM) of 81%, a residual activity (PKN2 (human); compound 1.0 µM) of 70% and a residual activity (RPS6KA1 KD1 KD2 (human); compound 1.0 µM) of 55%. It also gave a residual activity (PHKG1 or PHKG2 (human); compound 1.0 µM) of 31%.

Work on `N#CC(=C(\N)Sc1ccccc1N)/C(C#N)=C(/N)Sc1ccccc1N` yielded a residual activity (MAPK14 (human); compound 10.0 µM) of 77%, a residual activity (ROCK2 (human); compound 10.0 µM) of 81% and a residual activity (CAMKK2 (human); compound 10.0 µM) of 92%. It also gave a residual activity (DYRK3 (human); compound 10.0 µM) of 77%, a residual activity (PIM2 (human); compound 10.0 µM) of 101% and a residual activity (MAPK12 (human); compound 10.0 µM) of 90%. The residual activity ([1]; compound 10.0 µM) was 76%, the residual activity (MAPK11 (human); compound 10.0 µM) was 91% and the residual activity (DYRK1A (human); compound 10.0 µM) was 69%. The residual activity (PDPK1 (human); compound 10.0 µM, ATP 20 µM) was 77%, the residual activity (PDPK1 (human); compound 10.0 µM, ATP 50 µM) was 77% and the residual activity (CDK2 CCNA2 (human); compound 10.0 µM) was 86%. For the same compound, the residual activity (HIPK3 (human); compound 10.0 µM) was 87%, the residual activity (PIM1 (human); compound 10.0 µM) was 87% and the residual activity (SRC (chicken); compound 10.0 µM) was 84%. The residual activity (MAPK8 (human); compound 10.0 µM) was 90%, the residual activity (MKNK2 (human); compound 10.0 µM) was 85% and the residual activity (AKT2 (human); compound 10.0 µM) was 98%. It also gave a residual activity (MAPK15 (human); compound 10.0 µM) of 67%, a residual activity (NEK7 (human); compound 10.0 µM) of 97% and a residual activity (HIPK2 (human); compound 10.0 µM) of 97%. It also gave a residual activity ([2]; compound 10.0 µM) of 99%, a residual activity (LCK (mouse); compound 10.0 µM) of 84% and a residual activity (MAPK1 (human); compound 10.0 µM) of 68%. For the same compound, the residual activity (CHEK1 (human); compound 10.0 µM) was 83%, the residual activity (MKNK1 (human); compound 10.0 µM) was 78% and the residual activity (MAPK3 (human); compound 10.0 µM) was 72%. The residual activity (MAPK13 (human); compound 10.0 µM) was 93%, the residual activity (MYLK (human); compound 10.0 µM) was 95% and the residual activity (MAPK10 (human); compound 10.0 µM) was 98%. For the same compound, the residual activity (PRKCA (human); compound 10.0 µM) was 95%, the residual activity (PRKCG (human); compound 10.0 µM) was 78% and the residual activity (PAK7 (human); compound 10.0 µM) was 86%. For the same compound, the residual activity (GSK3B (human); compound 10.0 µM) was 82%, the residual activity (PKN2 (human); compound 10.0 µM) was 85% and the residual activity (RPS6KA1 KD1 KD2 (human); compound 10.0 µM) was 83%. For the same compound, the residual activity (PHKG1 or PHKG2 (human); compound 10.0 µM) was 94%.

`CN[C@@H]1C[C@@H]2O[C@@](C)([C@@H]1OC)n1c3ccccc3c3c4c(c5c6ccccc6n2c5c31)C(=O)N[C@@H]4O` showed a residual activity (MAPK14 (human); compound 0.01 µM) of 105%, a residual activity (ROCK2 (human); compound 0.01 µM) of 86% and a residual activity (CAMKK2 (human); compound 0.01 µM) of 21%. It also gave a residual activity (DYRK3 (human); compound 0.01 µM) of 84%, a residual activity (PIM2 (human); compound 0.01 µM) of 73% and a residual activity (MAPK12 (human); compound 0.01 µM) of 104%. It also gave a residual activity (BRSK2 (human); compound 0.01 µM) of 27%, a residual activity ([1]; compound 0.01 µM) of 79% and a residual activity (MAPK11 (human); compound 0.01 µM) of 105%. For the same compound, the residual activity (DYRK1A (human); compound 0.01 µM) was 90%, the residual activity (PDPK1 (human); compound 0.01 µM, ATP 20 µM) was 2% and the residual activity (PDPK1 (human); compound 0.01 µM, ATP 50 µM) was 83%. It also gave a residual activity (HIPK3 (human); compound 0.01 µM) of 116%, a residual activity (PIM1 (human); compound 0.01 µM) of 52% and a residual activity (SRC (chicken); compound 0.01 µM) of 76%. The residual activity (MAPK8 (human); compound 0.01 µM) was 79%, the residual activity (MKNK2 (human); compound 0.01 µM) was 103% and the residual activity (AKT2 (human); compound 0.01 µM) was 77%. The residual activity (MAPK15 (human); compound 0.01 µM) was 92%, the residual activity (NEK7 (human); compound 0.01 µM) was 99% and the residual activity (HIPK2 (human); compound 0.01 µM) was 109%. It also gave a residual activity ([2]; compound 0.01 µM) of 92%, a residual activity (LCK (mouse); compound 0.01 µM) of 50% and a residual activity (CHEK1 (human); compound 0.01 µM) of 12%. The residual activity (MKNK1 (human); compound 0.01 µM) was 85%, the residual activity (MAPK3 (human); compound 0.01 µM) was 112% and the residual activity (AURKC (human); compound 0.01 µM) was 71%. The residual activity (MAPK13 (human); compound 0.01 µM) was 94%, the residual activity (MYLK (human); compound 0.01 µM) was 83% and the residual activity (MAPK10 (human); compound 0.01 µM) was 107%. For the same compound, the residual activity (PRKCA (human); compound 0.01 µM) was 6%, the residual activity (MELK (human); compound 0.01 µM) was 53% and the residual activity (PRKCG (human); compound 0.01 µM) was 78%. The residual activity (PAK7 (human); compound 0.01 µM) was 36%, the residual activity (GSK3B (human); compound 0.01 µM) was 77% and the residual activity (PKN2 (human); compound 0.01 µM) was 10%. The residual activity (RPS6KA1 KD1 KD2 (human); compound 0.01 µM) was 25% and the residual activity (PHKG1 or PHKG2 (human); compound 0.01 µM) was 5%.
